Several values for one entry are separate records, joined by “and”; a condition that tells them apart may be missing. Equal entries are not always repeated. Marks after values point to notes of the source that are not given here.
Tested on: A549 human lung carcinoma cells
Experiment: In vitro potency assay for Photofrin®: A549 cells, 4 h drug absorption, wash, 10 min irradiation at 400-650 nm, 24 h, XTT viability, 4PL EC50
Assay type: cell-based
Parameters: key to EC50-XTT / EC50 STD / EC50 Test: EC50 as Photofrin concentration in μg/mL (4PL inflection point)
Details: for EC50 STD / EC50 Test: in µg/mL; for EC50 Test / EC50 Test, Mean: Test (35 μg/mL high test drug concentration)
Experimental: Cell passaging of A549 cells is performed using fixed seeding densities to reduce assay variation resulting from cell culture conditions. […] Working in very low light conditions, Photofrin® is reconstituted in normal saline to 2.5 mg/mL and diluted further in culture medium at twice the desired final assay concentration, typically 140 μg/mL. A series of two-fold dilutions were then prepared from the 140 μg/mL solution and the diluted drug was added to the cells at 1:1 (v/v) according to the diagram shown in FIG. 11.
[…] The plate is then removed from the incubator, the drug is aspirated, the wells are washed with Dulbecco's phosphate buffered saline (DPBS) and fresh, pre-warmed medium is added to the wells. […] […] The wells covered with foil strips are important controls for the activity of Photofrin® in the absence of irradiation and the effect of light on the cells in the absence of drug.
The optical absorbance of the wells in column 1 (high drug concentration, no cells) is evaluated for absorption at 450 nm to ensure that the drug is not interfering with the XTT assay. The percent viability of each of the wells in columns 2-9 and 11 is calculated relative to the mean value of column 10 (cell control, no drug, no light). For each dose response obtained, a four parameter logistic (4PL) nonlinear regression analysis is performed of the percent viability versus the log-Photofrin® concentration. The point of inflection of the regression curve (C value) is defined as the EC50 and used in the calculation of relative potency. Curve fitting and calculation of the EC50 is performed with Softmax v5.4.2 (Molecular Devices, Inc.) or Prism v.5.04 (GraphPad, Software Inc.) software. The mean percent viability of columns 9 and 11 is also calculated.
• 1. Materials and Reagents • 1.1. A549 Human Lung Carcinoma (ATCC—Cat. No.: CCL-185) • 1.2. 25 cm^2 Flasks (Corning—Cat. No.: 431463, or equivalent) • 1.3. 75 cm^2 Flasks (Corning—Cat. No.: 431464, or equivalent) • 1.4. 50 mL tubes (Fisher Scientific—Cat. No. 17-512F, or equivalent) • 1.5. Hemacytometer • 1.6. RPMI-1640 (+) phenol red (Lonza—Cat. No.: 12-167F, or equivalent) • 1.7. HI-FBS (Gibco—Life Technologies—Cat No.: 10082-147, or equivalent) • 1.8. 200 mM L-Glutamine (Lonza—Cat. No.: 17-605E, or equivalent) • 1.9. 0.25% Trypsin-EDTA (Gibco—Cat. No.: 25200-056, or equivalent) • 2. Instruments • 2.1. Forma Scientific centrifuge with swinging bucket rotor (Model 5682, or equivalent) • 2.2. Water bath set at 37° C. • 2.3. […] Prepared Reagents • 3.1. RPMI-1640 Complete Media • 3.1.1. 500 mL bottle of RPMI-1640 basal media containing phenol red • 3.1.2. Add 50 mL HI-FBS • 3.1.3. Add 5.5 mL of 200 mM L-Glutamine • 4. Procedure • 4.1. Remove one vial of A549 lung carcinoma cells from liquid nitrogen storage and after ensuring that the vial is tightly closed, rapidly thaw vial by holding all but the top of the vial submerged in a 37° C. water bath until the vial contents begins to thaw but while ice still remains. • 4.2. Liberally spray the vial with 70% ethanol, wipe with tissue, and place into a laminar flow hood. • 4.3. Transfer the contents of the vial to a 50 mL conical tube containing 9 mL RPMI-1640 complete medium containing phenol red (Step 3.1) (hereafter referred to as complete medium in this method). • 4.4. Centrifuge the tube in a swing bucket rotor set at 1200 RPM (220 RCF) for five minutes at room temperature. • 4.5. Discard supernatant and gently flick the tube to resuspend the cells in the residual volume left in the tube. • 4.6. Add 5 mL complete medium, transfer the cell solution to a 25 cm^2 flask, and then place the flask into a 37° C. incubator with 5% CO2. • 4.7. Monitor the flask daily and when the cells reach approximately 80% confluence, remove the media, and wash the cells by adding 2 mL DPBS to the flask. Ensure that all cells are rinsed and discard the DPBS. • 4.8. Add 1 mL 0.25% trypsin-EDTA to prewash the cells, tip flask to coat all cells, and discard the trypsin. • 4.9. […]

## porfimer sodium [Photofrin®]
FIG. 12, standard preparation versus preparation containing half of the nominal activity
  ratio of the standard to test sample EC50: 0.5
Standard sample (70 μg/mL high test drug concentration), A549 cells at passage P10
  EC50 STD: 10.5
Standard sample (70 μg/mL high test drug concentration), A549 cells at passage P17
  EC50 STD: 10.1
Standard sample (70 μg/mL high test drug concentration), Inter-operator Assay, AB-1
  EC50 STD: 6.37
Standard sample (70 μg/mL high test drug concentration), Inter-operator Assay, AB-2
  EC50 STD: 8.23
Standard sample (70 μg/mL high test drug concentration), Inter-operator Assay, mean of operator AB plates
  EC50 STD, Mean: 7.3 µg/mL
Standard sample (70 μg/mL high test drug concentration), Photofrin® absorption time 3.5 hours
  EC50 STD: 10.4
Standard sample (70 μg/mL high test drug concentration), absorption time 4.0 hours
  EC50 STD: 10.2
Standard sample (70 μg/mL high test drug concentration), absorption time 4.5 hours
  EC50 STD: 9.23
Standard sample (70 μg/mL high test drug concentration), irradiation time 8 minutes
  EC50 STD: 12.0
Standard sample (70 μg/mL high test drug concentration), irradiation time 9 minutes
  EC50 STD: 12.0
Standard sample (70 μg/mL high test drug concentration), irradiation time 10 minutes
  EC50 STD: 11.1
Standard sample (70 μg/mL high test drug concentration), irradiation time 11 minutes
  EC50 STD: 11.6
Standard sample (70 μg/mL high test drug concentration), irradiation time 12 minutes
  EC50 STD: 10.8
Standard sample (70 μg/mL high test drug concentration), operator AB Pilot Assay-1
  EC50 STD: 6.62
Standard sample (70 μg/mL high test drug concentration), operator AB Pilot Assay-2
  EC50 STD: 6.76
Standard sample (70 μg/mL high test drug concentration), post-irradiation incubation time 22 hours
  EC50 STD: 9.16
Standard sample (70 μg/mL high test drug concentration), post-irradiation incubation time 24 hours
  EC50 STD: 10.2
Standard sample (70 μg/mL high test drug concentration), post-irradiation incubation time 26 hours
  EC50 STD: 9.55
Standard sample (70 μg/mL high test drug concentration), post-irradiation temperature 35° C.
  EC50 STD: 9.68
Standard sample (70 μg/mL high test drug concentration), post-irradiation temperature 37° C. (nominal, two experiments)
  EC50 STD: 10.8 and 9.9
Standard sample (70 μg/mL high test drug concentration), post-irradiation temperature 39° C.
  EC50 STD: 8.32
Standard sample, 70 μg/mL high test concentration, Plate 1 (placement Standard, Test; left to right dilution; controls in columns 9-11)
  Standard Sample EC50: 11.1 µg/mL
Standard sample, 70 μg/mL high test concentration, Plate 2 (placement Test, Standard; left to right dilution; controls in columns 9-11)
  Standard Sample EC50: 10.7 µg/mL
Standard sample, 70 μg/mL high test concentration, Plate 3 (right to left dilution; controls in columns 9-11)
  Standard Sample EC50: 11.2 µg/mL
Standard sample, 70 μg/mL high test concentration, Plate 4 (placement Standard, Test; left to right dilution; controls in columns 9-11)
  Standard Sample EC50: 11 µg/mL
Standard sample, 70 μg/mL high test concentration, Plate 5 (left to right dilution; controls in columns 2-4)
  Standard Sample EC50: 10.8 µg/mL
Standard sample, 70 μg/mL high test concentration, mean across Plates 1-5 of positional analysis
  Standard Sample EC50, Mean: 11 µg/mL
A549 cells at passage P10, wide confidence interval due to poor curve fitting
  EC50 Test: 18.9**
A549 cells at passage P17
  EC50 Test: 19.2
Inter-operator Assay, AB-1
  EC50 Test: 13.7
Inter-operator Assay, AB-2
  EC50 Test: 14.6
Inter-operator Assay, mean of operator AB plates
  EC50 Test, Mean: 14.2 µg/mL
Inter-operator Assay, mean of operator KP plates
  EC50 Test, Mean: 20 µg/mL
Inter-operator Assay, operator KP, both plates KP-1
  EC50 Test: 20.1 and 19.8
Absorption time 3.5 hours
  EC50 Test: 19.5
Absorption time 4.0 hours
  EC50 Test: 20.1
Absorption time 4.5 hours
  EC50 Test: 16.1
Irradiation time 8 minutes
  EC50 Test: 24.5
Irradiation time 9 minutes
  EC50 Test: 25.2
Irradiation time 10 minutes
  EC50 Test: 22.8
Irradiation time 11 minutes
  EC50 Test: 20.9
Irradiation time 12 minutes
  EC50 Test: 21.0
Operator AB Pilot Assay-1
  EC50 Test: 16.1
Operator AB Pilot Assay-2
  EC50 Test: 12.6
post-irradiation incubation time 22 hours
  EC50 Test: 16.7
post-irradiation incubation time 24 hours
  EC50 Test: 18.9
post-irradiation incubation time 26 hours
  EC50 Test: 16.6
post-irradiation temperature 35° C.
  EC50 Test: 21.6
post-irradiation temperature 37° C. (nominal, two experiments)
  EC50 Test: 19.9 and 20.0
post-irradiation temperature 39° C.
  EC50 Test: 16.1
Seeding density 0.8 × 10^4 cells/well
  EC50 Test: 21.1
Seeding density 1.2 × 10^4 cells/well
  EC50 Test: 27.9
Seeding density 1.9 × 10^4 cells/well
  EC50 Test: 21.3

Source: patent US11726079B2, “Lighting systems and methods of using lighting systems for in vitro potency assay for Photofrin” (Concordia Laboratories, Inc., priority 2012, dated 2023)
